Data from patent US8017612B2, “Piperazine compound and use thereof as a HCV polymerase inhibitor” (priority 2006, dated 2011).
pIC50: −log10 of the molar value.

Key:
[1] = biological target: T1, HCV polymerase (NS5B) type 1b (Hepatitis C virus genotype 1b, UniProt P26663); assay: Assay of enzyme (HCV polymerase) inhibitory activity, type 1b enzyme; format: biochemical, HCV BK strain (type 1b); conditions: HCV polymerase inhibitory activity (IC50), 1b, type 1b enzyme 0.5 μg/ml, 25° C., 60 min
T1 construct: a region encoding NS5B (J Virol 1991 March, 65(3), 1105-13, 544 amino acids after deletion of 47 amino acids on the C-terminal); 6xHis (C); made in house; host or cells: Escherichia coli
Description: (§1) The evaluation of the HCV polymerase inhibitory activity of the compound of the present invention is explained in the following. This polymerase is an enzyme coded for by the non-structural protein region called NS5B on the genome RNA of HCV.
(§2) i) Preparation of Enzyme (HCV Polymerase)
(§3) Using, as a template, a cDNA clone corresponding to the full length genome RNA of HCV BK strain (type 1b) obtained from the blood of a patient with hepatitis C, a region encoding NS5B (J Virol 1991 March, 65(3), 1105-13, 544 amino acids after deletion of 47 amino acids on the C-terminal) was amplified by PCR. The objective gene was prepared by adding a 6 His tag {base pair encoding 6 continuous histidine (His)} to the 3′ end thereof and transformed to Escherichia coli. The Escherichia coli capable of producing the objective protein was cultured. The obtained cells were suspended in a buffer solution and crushed in a microfluidizer. The supernatant was obtained by centrifugation and applied to various column chromatographys {mono-S, Sephacryl S-200 (Pharmacia)}, inclusive of metal chelate chromatography, to give a standard enzyme product.
(§4) ii) Synthesis of Substrate RNA
(§5) Using a synthetic primer designed based on the sequence of HCV genomic 3′ untranslated region, a DNA fragment (148 bp) containing polyU and 3′X sequence was entirely synthesized and cloned into plasmid pBluescript SK II(+) (Stratagene). The cDNA encoding full length NS5B, which was prepared in i) above, was digested with restriction enzyme KpnI to give a cDNA fragment containing the nucleotide sequence of from the restriction enzyme cleavage site to the termination codon. This cDNA fragment was inserted into the upstream of 3′ untranslated region of the DNA in pBluescript SK II(+) and ligated. The about 450 bp inserted DNA sequence was used as a template in the preparation of substrate RNA. This plasmid was cleaved immediately after the 3′X sequence, linearized and purified by phenol-chloroform treatment and ethanol precipitation to give DNA.
(§6) RNA was synthesized (37° C., 4 hr) by run-off method using this purified DNA as a template, a promoter of pBluescript SK II(+), MEGAscript RNA synthesis kit (Ambion) and T7 RNA polymerase. DNase I was added and the mixture was incubated for 1 hr. The template DNA was removed by decomposition to give a crude RNA product. This crude product was treated with phenol-chloroform and purified by ethanol precipitation to give the objective substrate RNA.
(§7) This RNA was applied to urea denaturation polyacrylamide gel electrophoresis to confirm the quality thereof and preserved at −80° C.
(§8) iii) Assay of Enzyme (HCV Polymerase) inhibitory activity
(§9) A test substance (compound of the present invention) and a reaction mixture (30 μl) having the following composition were reacted at 25° C. for 60 min.
(§10) 10% Trichloroacetic acid and 1% sodium pyrophosphate solution (150 μl) at 4° C. was added to this reaction mixture to stop the reaction. The reaction mixture was left standing at 4° C. for 15 min to insolubilize RNA. This RNA was trapped on a glass filter (PerkinElmer, GF/B) upon filtration by suction. This filter was washed with a solution containing 1% trichloroacetic acid and 0.1% sodium pyrophosphate, washed with 90% ethanol and dried. A liquid scintillation cocktail (PerkinElmer) was added and the radioactivity of RNA synthesized by the enzyme reaction was measured on a liquid scintillation counter.
The HCV polymerase inhibitory activity (IC50) of the compound of the present invention was calculated from the values of radioactivity of the enzyme reaction with and without the test substance.
Reaction mixture: HCV polymerase (type 1b 0.5 μg/ml or type 1a 1.5 μg/m) obtained in i), substrate RNA (5 μg/ml) obtained in ii), ATP (50 μM), GTP (50 μM), CTP (50 μM), UTP (2 μM), [5,6-^3H]UTP (30-60 Ci/mmol (Amersham Biosciences), 1 μCi) 20 mM Tris-HCl (pH 7.5), EDTA (1 mM), MgCl2 (5 mM), NaCl (50 mM), DTT (1 mM), BSA (0.01%)

[2] = biological target: T2, HCV polymerase (NS5B) type 1a (Hepatitis C virus genotype 1a, UniProt P26664); assay: Assay of enzyme (HCV polymerase) inhibitory activity, type 1a enzyme; format: biochemical, HCV type 1a (cloned from the blood of patients); conditions: HCV polymerase inhibitory activity (IC50), 1a, type 1a enzyme 1.5 μg/ml, 25° C., 60 min
T2 construct: made in house; host or cells: Escherichia coli (by the 'similar method' of the 1b enzyme)
Description: as §1, §2, §3
Standard enzyme products for type 1a (cloned from the blood of patients) were also obtained by a similar method.
as §4, §5, §6, §7, §8, §9, §10
The HCV polymerase inhibitory activity (IC50) of the compound of the present invention was calculated from the values of radioactivity of the enzyme reaction with and without the test substance. […]

Compound	pIC50 [1]	pIC50 [2]
CC(=O)N1CCN(S(=O)(=O)c2ccc(Cl)c(Cl)c2)C(C(=O)NCc2ccc(C(F)(F)F)cc2)C1 (stereo not drawn) [Example 41, 4-acetyl-1-(3,4-dichloro-benzenesulfonyl)-piperazine-2-carboxylic acid 4-trifluoromethyl-benzylamide]	< 6.00	< 6.00
CC(=O)N1CCN(S(=O)(=O)c2cccc(-c3ccccc3)c2)C(C(=O)NCc2ccc(C(F)(F)F)cc2)C1 (stereo not drawn) [Example 42, 4-acetyl-1-(biphenyl-3-sulfonyl)-piperazine-2-carboxylic acid 4-trifluoromethyl-benzylamide]	< 6.00	< 6.00
CC(=O)N1CCN(S(=O)(=O)c2ccc(-c3cc(C(F)(F)F)on3)s2)C(C(=O)NCc2ccc(C(F)(F)F)cc2)C1 (stereo not drawn) [Example 43, 4-acetyl-1-[5-(5-trifluoromethyl-isoxazol-3-yl)-thiophene-2-sulfonyl]-piperazine-2-carboxylic acid 4-trifluoromethyl-benzylamide]	< 6.00	< 6.00
COc1ccc(S(=O)(=O)N2CCN(C(C)=O)CC2C(=O)NCc2ccc(C(F)(F)F)cc2)cc1 (stereo not drawn) [Example 44, 4-acetyl-1-(4-methoxy-benzenesulfonyl)-piperazine-2-carboxylic acid 4-trifluoromethyl-benzylamide]	< 6.00	< 6.00
CC(=O)N1CCN(S(=O)(=O)c2ccc(C(F)(F)F)cc2)C(C(=O)NCc2ccc(C(F)(F)F)cc2)C1 (stereo not drawn) [Example 45, 4-acetyl-1-(4-trifluoromethyl-benzenesulfonyl)-piperazine-2-carboxylic acid 4-trifluoromethyl-benzylamide]	< 6.00	< 6.00
CC(=O)N1CCN(S(=O)(=O)c2ccc(C#N)cc2)C(C(=O)NCc2ccc(C(F)(F)F)cc2)C1 (stereo not drawn) [Example 46, 4-acetyl-1-(4-cyano-benzenesulfonyl)-piperazine-2-carboxylic acid 4-trifluoromethyl-benzylamide]	< 6.00	< 6.00
CC(=O)N1CCN(S(=O)(=O)c2ccc(S(=O)(=O)c3ccccc3)s2)C(C(=O)NCc2ccc(C(F)(F)F)cc2)C1 (stereo not drawn) [Example 47, 4-acetyl-1-(5-benzenesulfonyl-thiophene-2-sulfonyl)-piperazine-2-carboxylic acid 4-trifluoromethyl-benzylamide]	< 6.00	< 6.00
CC(=O)N1CCN(S(=O)(=O)c2ccc3c(c2)CCO3)C(C(=O)NCc2ccc(C(F)(F)F)cc2)C1 (stereo not drawn) [Example 48, 4-acetyl-1-(2,3-dihydro-benzofuran-5-sulfonyl)-piperazine-2-carboxylic acid 4-trifluoromethyl-benzylamide]	< 6.00	< 6.00
CC(=O)N1CCN(S(=O)(=O)c2ccc(C(C)C)cc2)C(C(=O)NCc2ccccc2)C1 (stereo not drawn) [Example 49, 4-acetyl-1-(4-isopropyl-benzenesulfonyl)-piperazine-2-carboxylic acid benzylamide]	< 6.00	< 6.00
COc1ccccc1CNC(=O)C1CN(C(C)=O)CCN1S(=O)(=O)c1ccc(C(C)C)cc1 (stereo not drawn) [Example 50, 4-acetyl-1-(4-isopropyl-benzenesulfonyl)-piperazine-2-carboxylic acid 2-methoxy-benzylamide]	< 6.00	< 6.00
COc1cccc(CNC(=O)C2CN(C(C)=O)CCN2S(=O)(=O)c2ccc(C(C)C)cc2)c1 (stereo not drawn) [Example 51, 4-acetyl-1-(4-isopropyl-benzenesulfonyl)-piperazine-2-carboxylic acid 3-methoxy-benzylamide]	< 6.00	< 6.00
COc1ccc(CNC(=O)C2CN(C(C)=O)CCN2S(=O)(=O)c2ccc(C(C)C)cc2)cc1 (stereo not drawn) [Example 52, 4-acetyl-1-(4-isopropyl-benzenesulfonyl)-piperazine-2-carboxylic acid 4-methoxy-benzylamide]	< 6.00	< 6.00
CC(=O)N1CCN(S(=O)(=O)c2ccc(C(C)C)cc2)C(C(=O)NCc2ccc(OC(F)(F)F)cc2)C1 (stereo not drawn) [Example 53, 4-acetyl-1-(4-isopropyl-benzenesulfonyl)-piperazine-2-carboxylic acid 4-trifluoromethoxy-benzylamide]	6.00 to 7.00	6.00 to 7.00
CC(=O)N1CCN(S(=O)(=O)c2ccc(C(C)C)cc2)C(C(=O)NCc2ccc(Br)cc2)C1 (stereo not drawn) [Example 54, 4-acetyl-1-(4-isopropyl-benzenesulfonyl)-piperazine-2-carboxylic acid 4-bromo-benzylamide]	< 6.00	< 6.00
CC(C)c1ccc(S(=O)(=O)N2CCN(C(=O)CO)CC2C(=O)NCc2ccc(C(F)(F)F)cc2)cc1 (stereo not drawn) [Example 55, 4-(2-hydroxy-acetyl)-1-(4-isopropyl-benzenesulfonyl)-piperazine-2-carboxylic acid 4-trifluoromethyl-benzylamide]	< 6.00	< 6.00
CC(C)c1ccc(S(=O)(=O)N2CCN(C(=O)C(C)(C)O)CC2C(=O)NCc2ccc(C(F)(F)F)cc2)cc1 (stereo not drawn) [Example 56, 4-(2-hydroxy-2-methyl-propionyl)-1-(4-isopropyl-benzenesulfonyl)-piperazine-2-carboxylic acid 4-trifluoromethyl-benzylamide]	< 6.00	< 6.00
COCC(=O)N1CCN(S(=O)(=O)c2ccc(C(C)C)cc2)C(C(=O)NCc2ccc(C(F)(F)F)cc2)C1 (stereo not drawn) [Example 57, 1-(4-isopropyl-benzenesulfonyl)-4-(2-methoxy-acetyl)-piperazine-2-carboxylic acid 4-trifluoromethyl-benzylamide]	< 6.00	< 6.00
CC(C)c1ccc(S(=O)(=O)N2CCN(C(=O)CCO)CC2C(=O)NCc2ccc(C(F)(F)F)cc2)cc1 (stereo not drawn) [Example 58, 4-(3-hydroxy-propionyl)-1-(4-isopropyl-benzenesulfonyl)-piperazine-2-carboxylic acid 4-trifluoromethyl-benzylamide]	< 6.00	< 6.00
CC(C)c1ccc(S(=O)(=O)N2CCN(C(=O)N(C)C)CC2C(=O)NCc2ccc(C(F)(F)F)cc2)cc1 (stereo not drawn) [Example 59, 4-(4-isopropyl-benzenesulfonyl)-piperazine-1,3-dicarboxylic acid 1-dimethylamide 3-(4-trifluoromethyl-benzylamide)]	< 6.00	< 6.00
CCc1ccc(S(=O)(=O)N2CCN(C(C)=O)CC2C(=O)NCc2ccc(C(F)(F)F)cc2)cc1 (stereo not drawn) [Example 60, 4-acetyl-1-(4-ethyl-benzenesulfonyl)-piperazine-2-carboxylic acid 4-trifluoromethyl-benzylamide]	< 6.00	< 6.00
CC(=O)N1CCN(S(=O)(=O)c2ccc(I)cc2)C(C(=O)NCc2ccc(C(F)(F)F)cc2)C1 (stereo not drawn) [Example 61, 4-acetyl-1-(4-iodo-benzenesulfonyl)-piperazine-2-carboxylic acid 4-trifluoromethyl-benzylamide]	< 6.00	< 6.00
